One assay addresses c-fms (Homo sapiens (Human), UniProt P07333). Description: Autophosphorylation fluorescence polarization competition immunoassay for c-fms inhibition. In kind it is biochemical. The conditions noted are these: averages of three independent measurements; table head says 1 nM c-fms, method says 10 nM c-fms, 1 mM ATP; read-out: 1 nM c-fms; peptide Pi assay IC-50. As for the experimental part: Fluorescence Polarization Competition Immunoassay
The assay buffer used was 100 mM 4-(2-hydroxyethyl)piperazine 1-ethanesulfonic acid (HEPES), pH 7.5, 1 mM 1,4-dithio-DL-threitol (DTT), 0.01% (v/v) Tween-20. Compounds were diluted in assay buffer containing 4% dimethylsulfoxide (DMSO) just prior to the assay. To each well, 5 μL of compound were added followed by the addition of 3 μL of a mix containing 33 nM c-fms (Johnson & Johnson PRD) and 16.7 mM MgCl2 (Sigma) in assay buffer. The kinase reaction was initiated by adding 2 μL of 5 mM ATP (Sigma) in assay buffer. […] Control reactions were ran in each plate: in positive and negative control wells, assay buffer (made 4% in DMSO) was substituted for the compound; in addition, positive control wells received 1.2 μL of 50 mM ethylenediaminetetraaceticacid (EDTA).
The plates were incubated at room temperature for 45 min. At the end of the incubation, the reaction was quenched with 1.2 μL of 50 mM EDTA (EDTA was not added to the positive control wells at this point; see above). Following a 5-min incubation, each well received 10 μL of a 1:1:3 mixture of anti-phosphotyrosine antibody, 10×, PTK green tracer, 10× (vortexed), FP dilution buffer, respectively (all from PanVera, cat. #P2837). The plate was covered, incubated for 30 min at room temperature and the fluorescence polarization was read on the Analyst. The instrument settings were: 485 nm excitation filter; 530 nm emission filter; Z height: middle of well; G factor: 0.93. […] The reported IC50 values are averages of three independent measurements.
For orientation: Fluorescence polarisation rises when a labelled molecule tumbles more slowly, as on binding a larger partner.

Assay [1] concerns mouse bone-marrow derived macrophages (BMDM). Description: CSF-1-driven mouse bone-marrow derived macrophages proliferation assay (BrDU incorporation). In kind it is cell-based. The note with it: 30 hrs culture, read-out: mCSF driven proliferation BMDM (Mouse) IC-50. As for the experimental part:
CSF-1-Driven Mouse Bone-Marrow Derived Macrophages Assay
Macrophages are derived by culturing mouse bone marrow in alpha-MEM supplemented with 10% FCS and 50 ng/ml recombinant mouse CSF-1 in bacteriologic dishes. On the sixth day, macrophages are detached from dishes, washed, and resuspended to 0.05 million cells/ml in alpha-MEM containing 10% FCS. One hundred ul of cell suspension are distributed per well into 96 well culture plates. Wells are further supplemented with the addition of 50 ul media containing 15 ng/ml CSF-1, 3 uM Indomethacin, and 3× of a dilution series of test compounds. The cells are cultured for 30 hrs at 37 degrees and 5% CO2. During the final six hours, cultures are supplemented with an additional 30 ul of media containing a 1:500 dilution of bromodeoxyuridine (BrDU). At the end of the culture period, the plates are spun at 1000 RPM for 1 minute and 130 ul of media is removed with a pipet and replaced with 150 ul of fixative solution for 1 hour @ room temperature. The fixative is then dispelled from the plates and the plates allowed to air dry. Incorporation of BrDU into the fixed, dried cells is quantified using a specific ELISA.

Like-named read-outs stand apart in the source and are kept apart here.

Sequence of c-fms (P07333 20-972): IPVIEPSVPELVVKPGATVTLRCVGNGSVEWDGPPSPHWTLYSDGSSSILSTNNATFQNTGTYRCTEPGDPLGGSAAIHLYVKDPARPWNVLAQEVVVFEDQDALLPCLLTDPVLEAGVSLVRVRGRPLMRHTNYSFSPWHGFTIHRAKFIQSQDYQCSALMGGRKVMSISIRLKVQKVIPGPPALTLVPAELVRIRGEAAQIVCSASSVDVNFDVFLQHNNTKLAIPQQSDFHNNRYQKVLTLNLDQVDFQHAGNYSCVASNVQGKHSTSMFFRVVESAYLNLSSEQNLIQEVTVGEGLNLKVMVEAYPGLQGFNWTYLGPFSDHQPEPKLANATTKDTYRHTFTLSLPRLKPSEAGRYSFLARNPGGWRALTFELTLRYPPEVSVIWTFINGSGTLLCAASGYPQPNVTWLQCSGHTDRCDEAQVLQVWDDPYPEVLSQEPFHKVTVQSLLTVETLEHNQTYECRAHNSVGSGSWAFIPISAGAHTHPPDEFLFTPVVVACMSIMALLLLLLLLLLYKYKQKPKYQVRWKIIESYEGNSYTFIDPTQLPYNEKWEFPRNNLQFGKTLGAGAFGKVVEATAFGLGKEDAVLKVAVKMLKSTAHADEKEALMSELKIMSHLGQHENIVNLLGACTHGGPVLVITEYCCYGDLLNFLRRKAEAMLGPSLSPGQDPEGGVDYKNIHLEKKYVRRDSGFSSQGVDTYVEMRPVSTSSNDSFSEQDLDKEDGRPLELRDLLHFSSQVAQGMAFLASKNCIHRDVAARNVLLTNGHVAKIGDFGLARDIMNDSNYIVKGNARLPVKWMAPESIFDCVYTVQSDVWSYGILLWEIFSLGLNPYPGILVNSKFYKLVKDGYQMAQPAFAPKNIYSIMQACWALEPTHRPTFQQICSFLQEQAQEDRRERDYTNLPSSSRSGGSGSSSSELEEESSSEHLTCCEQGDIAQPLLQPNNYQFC

Regarding `CC1(C)CC=C(c2cc(C3(c4nn[nH]n4)CCOCC3)ccc2NC(=O)c2nc(C#N)c[nH]2)CC1` [Example 22, 4-Cyano-1H-imidazole-2-carboxylic acid {2-(4,4-dimethyl-cyclohex-1-enyl)-4-[4-(2H-tetrazol-5-yl)-tetrahydro-pyran-4-yl]-phenyl}-amide], the IC50 on c-fms is 0.8 nM; in assay [1] (Mus musculus, BMDM) it was above 300 nM.

`CC1(C)CC=C(c2cc(C3(C(=O)O)CCOCC3)ccc2NC(=O)c2cc(C#N)c[nH]2)CC1` [Example 23, 4-[4-[(4-Cyano-1H-pyrrole-2-carbonyl)-amino]-3-(4,4-dimethyl-cyclohex-1-enyl)-phenyl]-tetrahydro-pyran-4-carboxylic acid]: the IC50 is 6.4 nM at c-fms and above 300 nM in assay [1] (Mus musculus, BMDM).

Take `CC1(C)CC=C(c2cc(C3(C(N)=O)CCOCC3)ccc2NC(=O)c2nc(C#N)c[nH]2)CC1` [Example 24, 4-Cyano-1H-imidazole-2-carboxylic acid [4-(4-carbamoyl-tetrahydro-pyran-4-yl)-2-(4,4-dimethyl-cyclohex-1-enyl)-phenyl]-amide]: the IC50 on c-fms was 0.8 nM; in assay [1] (Mus musculus, BMDM) it was 14 nM.

As to `CC1(C)CC=C(c2cc(C3(CO)CCOCC3)ccc2NC(=O)c2nc(C#N)c[nH]2)CC1` [Example 25, 4-Cyano-1H-imidazole-2-carboxylic acid [2-(4,4-dimethyl-cyclohex-1-enyl)-4-(4-hydroxymethyl-tetrahydro-pyran-4-yl)-phenyl]-amide], the IC50 was found to be 0.49 nM at c-fms and 6.5 nM in assay [1] (Mus musculus, BMDM).

Turning to `CC1(C)CC=C(c2cc(C3(CN4CCOCC4)CCOCC3)ccc2NC(=O)c2nc(C#N)c[nH]2)CC1` [Example 26, 4-Cyano-1H-imidazole-2-carboxylic acid [2-(4,4-dimethyl-cyclohex-1-enyl)-4-(4-morpholin-4-ylmethyl-tetrahydro-pyran-4-yl)-phenyl]-amide], the IC50 at c-fms was determined as 3 nM; in assay [1] (Mus musculus, BMDM), 5.3 nM.

On to `N#Cc1c[nH]c(C(=O)Nc2ccc(C3(O)CCOCC3)cc2C2=CCCCC2)n1` [Example 27, 4-Cyano-1H-imidazole-2-carboxylic acid [2-cyclohex-1-enyl-4-(4-hydroxy-tetrahydro-pyran-4-yl)-phenyl]-amide], for which the IC50 at c-fms is 2.9 nM; in assay [1] (Mus musculus, BMDM) it was 4.5 nM.

Turning to `CN(C)C(=O)C1(c2ccc(NC(=O)c3nc(C#N)c[nH]3)c(C3=CCCCC3)c2)CCOCC1` [Example 28, 4-Cyano-1H-imidazole-2-carboxylic acid [2-cyclohex-1-enyl-4-(4dimethylcarbamoyl-tetrahydro-pyran-4-yl)-phenyl]-amide], the IC50 on c-fms turned out to be 8.4 nM; in assay [1] (Mus musculus, BMDM) it was 28 nM.

As for `CN(C)C(=O)C1(c2ccc(NC(=O)c3nc(C#N)c[nH]3)c(C3=CCC(C)(C)CC3)c2)CCOCC1` [Example 29, 4-Cyano-1H-imidazole-2-carboxylic acid [4-(4-dimethylcarbamoyl-tetrahydro-pyran-4-yl)-2-(4,4-dimethyl-cyclohex-1-enyl)-phenyl]-amide], the IC50 at c-fms was 1.6 nM; in assay [1] (Mus musculus, BMDM), 11 nM.

As for `C[C@@H]1CC(O)(c2ccc(NC(=O)c3nc(C#N)c[nH]3)c(C3=CCC(C)(C)CC3)c2)C[C@H](C)O1` (stereo partly drawn) [Example 30, 4-Cyano-1H-imidazole-2-carboxylic acid [2-(4,4-dimethyl-cyclohex-1-enyl)-4-(cis-4-hydroxy-cis-2,6-dimethyl-tetrahydro-pyran-4-yl)-phenyl]-amide], the IC50 on c-fms worked out at 3.2 nM; in assay [1] it was 7 nM.

On to `C[C@@H]1CC(O)(c2ccc(NC(=O)c3nc(C#N)c[nH]3)c(C3=CCC(C)(C)CC3)c2)C[C@H](C)O1` (stereo partly drawn) [Example 31, 4-cyano-1H-imidazole-2-carboxylic acid [2-(4,4-dimethyl-cyclohex-1-enyl)-4-(trans-4-hydroxy-cis-2,6-dimethyl-tetrahydro-pyran-4-yl)-phenyl]-amide], for which the IC50 at c-fms worked out at 1.4 nM; in assay [1], 3 nM.

In the case of `C[C@@H]1CC(O)(c2ccc(NC(=O)c3nc(C#N)c[nH]3)c(C3=CCC(C)(C)CC3)n2)C[C@H](C)O1` (stereo partly drawn) [Example 32, 4-Cyano-1H-imidazole-2-carboxylic acid [2-(4,4-dimethyl-cyclohex-1-enyl)-6-(4-hydroxy-Cis-2,6-dimethyl-tetrahydro-pyran-4-yl)-pyridin-3-yl]-amide], the IC50 at c-fms amounted to 3.2 nM; in assay [1] (Mus musculus, BMDM), 19 nM.

As for `CC1(C)CC=C(c2nc(C3(O)CCOCC3)ccc2NC(=O)c2nc(C#N)c[nH]2)CC1` [Example 33, 4-Cyano-1H-imidazole-2-carboxylic acid [2-(4,4-dimethyl-cyclohex-1-enyl)-6-(4-hydroxy-tetrahydro-pyran-4-yl)-pyridin-3-yl]-amide], the IC50 on c-fms amounted to 3.7 nM; in assay [1] (Mus musculus, BMDM), 33 nM.

As to `CS(=O)(=O)C1(c2ccc(NC(=O)c3ncc(C#N)[nH]3)c(C3=CCCCC3)c2)CCOCC1` [Example 34, 5-Cyano-1H-imidazole-2-carboxylic acid [2-cyclohex-1-enyl-4-(4-methanesulfonyl-tetrahydro-pyran-4-yl)-phenyl]-amide], the IC50 at c-fms was determined as 1.5 nM; in assay [1] (Mus musculus, BMDM) it was 17.2 nM.

For the compound `CC(=O)N1CCC(O)(c2ccc(NC(=O)c3nc(C#N)c[nH]3)c(C3=CCC(C)(C)CC3)c2)CC1` [Example 35, 4-Cyano-1H-imidazole-2-carboxylic acid [4-(1-acetyl-4-hydroxy-piperidin-4-yl)-2-(4,4-dimethyl-cyclohex-1-enyl)-phenyl]-amide], the IC50 at c-fms worked out at 0.7 nM; in assay [1] (Mus musculus, BMDM), 5.8 nM.

As to `CC1(C)CC=C(c2cc(C3(C#N)CCS(=O)(=O)CC3)ccc2NC(=O)c2nc(C#N)c[nH]2)CC1` [Example 87, 4-Cyano-1H-imidazole-2-carboxylic acid [4-(4-cyano-1,1-dioxo-hexahydro-1λ^6-thiopyran-4-yl)-2-(4,4-dimethyl-cyclohex-1-enyl)-phenyl]-amide], the IC50 is 1.1 nM on c-fms and 8.2 nM in assay [1] (Mus musculus, BMDM).

Turning to `CC1(C)CC=C(c2cc(C3(O)CC(C)(C)OC(C)(C)C3)ccc2NC(=O)c2nc(C#N)c[nH]2)CC1` [Example 88, 4-Cyano-1H-imidazole-2-carboxylic acid [2-(4,4-dimethyl-cyclohex-1-enyl)-4-(4-hydroxy-2,2,6,6-tetramethyl-tetrahydro-pyran-4-yl)-phenyl]-amide], the IC50 on c-fms stood at 2.4 nM; in assay [1] (Mus musculus, BMDM), 6.4 nM.

On to `CON1C(C)(C)CC(O)(c2ccc(NC(=O)c3nc(C#N)c[nH]3)c(C3=CCC(C)(C)CC3)c2)CC1(C)C` [Example 89, 4-Cyano-1H-imidazole-2-carboxylic acid [2-(4,4-dimethyl-cyclohex-1-enyl)-4-(4-hydroxy-1-methoxy-2,2,6,6-tetramethyl-piperidin-4-yl)-phenyl]-amide], for which the IC50 turned out to be 13 nM at c-fms and 20 nM in assay [1] (Mus musculus, BMDM).

`CC1(C)CC=C(c2cc(C3(O)CCN(CC(F)(F)F)CC3)ccc2NC(=O)c2nc(C#N)c[nH]2)CC1` [Example 90, 4-Cyano-1H-imidazole-2-carboxylic acid {2-(4,4-dimethyl-cyclohex-1-enyl)-4-[4-hydroxy-1-(2,2,2-trifluoro-ethyl)-piperidin-4-yl]-phenyl}-amide]: the IC50 at c-fms worked out at 6.5 nM; in assay [1] (Mus musculus, BMDM), 40 nM.

For the compound `CC1(C)CC=C(c2cc(C3(O)CC(C)(C)N(CC(F)(F)F)C(C)(C)C3)ccc2NC(=O)c2nc(C#N)c[nH]2)CC1` [Example 91, 4-Cyano-1H-imidazole-2-carboxylic acid {2-(4,4-dimethyl-cyclohex-1-enyl)-4-[4-hydroxy-2,2,6,6-tetramethyl-1-(2,2,2-trifluoro-ethyl)-piperidin-4-yl]-phenyl}-amide], the IC50 was around 210 nM at c-fms and 61 nM in assay [1] (Mus musculus, BMDM).

In the case of `CC1(C)CC=C(c2cc(C3(O)CC4CCC(C3)O4)ccc2NC(=O)c2nc(C#N)c[nH]2)CC1` (stereo not shown) [Example 92, 4-Cyano-1H-imidazole-2-carboxylic acid [2-(4,4-dimethyl-cyclohex-1-enyl)-4-(3-hydroxy-8-oxa-bicyclo[3.2.1]oct-3-yl)-phenyl]-amide], the IC50 on c-fms came to 2.2 nM; in assay [1] (Mus musculus, BMDM), 12 nM.

For the origin of these results see patent US9394289B2, “Inhibitors of c-fms kinase” (Janssen Pharmaceutica NV, priority 2006, dated 2016).
